Read-outs that look alike come from different tables or passages of the source.
Experiments:
[1] = biological target: T1, human vasopressin V1b receptor (Homo sapiens, UniProt P47901); settings: read-out: Ki(h-V1b)*, CHO-K1 cell membranes, displacement of 3H-AVP
T1 sequence (P47901 1-424): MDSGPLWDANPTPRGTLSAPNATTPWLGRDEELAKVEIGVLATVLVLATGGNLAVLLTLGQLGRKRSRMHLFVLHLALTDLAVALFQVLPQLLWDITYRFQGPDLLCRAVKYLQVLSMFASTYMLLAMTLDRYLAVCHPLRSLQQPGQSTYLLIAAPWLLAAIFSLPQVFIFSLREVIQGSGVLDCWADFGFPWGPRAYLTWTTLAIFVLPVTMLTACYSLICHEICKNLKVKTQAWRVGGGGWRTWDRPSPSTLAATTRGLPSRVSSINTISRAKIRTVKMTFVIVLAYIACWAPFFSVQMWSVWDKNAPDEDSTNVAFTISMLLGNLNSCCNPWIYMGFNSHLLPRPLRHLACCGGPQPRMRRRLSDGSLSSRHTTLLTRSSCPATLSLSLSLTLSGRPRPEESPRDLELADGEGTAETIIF

[2] = biological target: human vasopressin V1a receptor (Homo sapiens, UniProt P37288); experiment: Vasopressin V1a receptor binding assay; settings: selectivity for human V1b over human V1a, quotient of binding constants
[3] = biological target: T1, human vasopressin V1b receptor; experiment: biochemical; settings: Ki(h-V1b)* [nM], CHO-K1 cell membranes, displacement of 3H-AVP

Chain of human vasopressin V1a receptor (P37288 whole entry): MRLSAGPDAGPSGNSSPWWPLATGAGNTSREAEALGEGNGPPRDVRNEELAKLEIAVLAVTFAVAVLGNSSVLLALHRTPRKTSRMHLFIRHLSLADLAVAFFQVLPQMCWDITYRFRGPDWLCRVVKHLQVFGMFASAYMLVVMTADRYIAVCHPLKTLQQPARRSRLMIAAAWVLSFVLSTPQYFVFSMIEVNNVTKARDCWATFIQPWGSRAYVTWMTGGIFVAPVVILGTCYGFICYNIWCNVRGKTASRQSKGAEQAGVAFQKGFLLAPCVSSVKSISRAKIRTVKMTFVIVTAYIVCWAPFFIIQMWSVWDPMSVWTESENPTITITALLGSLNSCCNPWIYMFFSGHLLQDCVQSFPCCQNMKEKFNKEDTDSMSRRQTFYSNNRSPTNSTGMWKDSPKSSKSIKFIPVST

Structure (SMILES)	Ki [1] [nM]	Ki(h-V1a)/Ki(h-V1b) [2]	Ki [3] [nM]
CCOc1ncccc1[C@]1(NC(=O)N2CC3(CN(CCN4CCOCC4)C3)C2)C(=O)N(S(=O)(=O)c2ccc(F)cc2OC)c2ccc(C#N)cc21 [Example 3, N-[(3S)-5-Cyano-3-(2-ethoxy-3-pyridyl)-1-(4-fluoro-2-methoxy-phenyl)sulfonyl-2-oxo-indolin-3-yl]-2-(2-morpholinoethyl)-2,6-diazaspiro[3.3]heptane-6-carboxamide]	1 to 10	+++ (>75)	
CCOc1ncccc1[C@]1(NC(=O)N2CC3(CN(CCN4CCOCC4)C3)C2)C(=O)N(S(=O)(=O)c2ccc(OC)cc2OC)c2ccc(C#N)cc21 [Example 15, N-[(3S)-5-Cyano-1-(2,4-dimethoxyphenyl)sulfonyl-3-(2-ethoxy-3-pyridyl)-2-oxo-indolin-3-yl]-2-(2-morpholinoethyl)-2,6-diazaspiro[3.3]heptane-6-carboxamide]		+++ (>75)	< 1
COc1ccc(S(=O)(=O)N2C(=O)[C@@](NC(=O)N3CC4(CN(CCN5CCOCC5)C4)C3)(c3cccnc3OC)c3cc(C#N)ccc32)cc1.O=C(O)C(F)(F)F [Example 12, N-[(3S)-5-Cyano-1-(4-methoxyphenyl)sulfonyl-3-(2-methoxy-3-pyridyl)-2-oxo-indolin-3-yl]-2-(2-morpholinoethyl)-2,6-diazaspiro[3.3]heptane-6-carboxamide; 2,2,2-trifluoroacetic acid]		+ (10-<25)	1 to 10

Reference: patent US9527856B2, “Oxindole compounds carrying a CO-bound spiro substituent and use thereof for treating vasopressin-related diseases” (AbbVie Deutschland GmbH & Co. KG, priority 2014, dated 2016)
